Experimental data taken from patent publication US20160297833A1, “THIENOPYRIMIDINES AS MKNK1 AND MKNK2 INHIBITORS” (BAYER PHARMA AKTIENGESELLSCHAFT, priority 2013, published 2016).

target: T1, human full-length MKNK1 (Homo sapiens, UniProt Q9BUB5, T385D); experiment: MKNK1 kinase high ATP assay (TR-FRET); format: biochemical; settings: Table 1; MKNK1 kinase high ATP assay, 2 mM ATP; read-out: MKNK1 IC50
T1 construct: GST (N); purchased Carna Biosciences 02-145; host or cells: insect cells (baculovirus expression system)
T1 sequence (Q9BUB5 1-424 isoform Q9BUB5-2 T344D): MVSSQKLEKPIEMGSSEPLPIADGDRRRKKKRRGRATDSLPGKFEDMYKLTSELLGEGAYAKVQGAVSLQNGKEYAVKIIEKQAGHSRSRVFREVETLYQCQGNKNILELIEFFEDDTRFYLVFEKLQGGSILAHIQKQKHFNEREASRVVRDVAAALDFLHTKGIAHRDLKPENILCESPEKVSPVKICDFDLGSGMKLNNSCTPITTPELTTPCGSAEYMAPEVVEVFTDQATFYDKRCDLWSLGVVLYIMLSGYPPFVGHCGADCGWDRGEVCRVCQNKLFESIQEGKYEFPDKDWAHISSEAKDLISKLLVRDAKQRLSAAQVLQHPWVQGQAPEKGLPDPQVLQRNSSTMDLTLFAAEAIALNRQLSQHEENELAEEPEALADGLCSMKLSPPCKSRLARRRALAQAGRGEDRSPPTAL
How it was run: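 Full-length human MKNK1 (T385D) preincubated 15 min at 22 °C with compound in HEPES pH 7.5/MgCl2/DTT buffer; reaction with 2 mM ATP (final) and 0.06 μM biotinylated peptide (final), 30 min at 22 °C.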

IC50 [pM] | SMILES
400 | COc1cc2[nH]ncc2cc1Nc1ncnc2sc3c(c12)CC[C@H](C(=O)N1CC[C@@H](N(C)C)C1)C3 [Example 179, [(3R)-3-(Dimethylamino)pyrrolidin-1-yl]{(7S)-4-[(6-methoxy-1H-indazol-5-yl)amino]-5,6,7,8-tetrahydro[1]benzothieno[2,3-d]pyrimidin-7-yl}methanone]
400 | CN(C)C(=O)[C@H]1CCc2c(sc3ncnc(Nc4cc5cn[nH]c5cc4OCCCNC(=O)OC(C)(C)C)c23)C1 [Example 180, tert-Butyl {3-[(5-{[(7S)-7-(dimethylcarbamoyl)-5,6,7,8-tetrahydro[1]benzothieno[2,3-d]pyrimidin-4-yl]amino}-1H-indazol-6-yl)oxy]propyl}carbamate]
3600 | CN(C)C(=O)[C@H]1CCc2c(sc3ncnc(Nc4cc5cn[nH]c5cc4Br)c23)C1 [Example 181, (7S)-4-[(6-Bromo-1H-indazol-5-yl)amino]-N,N-dimethyl-5,6,7,8-tetrahydro[1]benzothieno[2,3-d]pyrimidine-7-carboxamide]
5300 | CN(C)C(=O)[C@H]1CCc2c(sc3ncnc(Nc4cc5cn[nH]c5cc4Cl)c23)C1 [Example 182, (7S)-4-[(6-Chloro-1H-indazol-5-yl)amino]-N,N-dimethyl-5,6,7,8-tetrahydro[1]benzothieno[2,3-d]pyrimidine-7-carboxamide]
700 | C[C@@H]1CN(C(=O)[C@H]2CCc3c(sc4ncnc(Nc5cc6cn[nH]c6cc5N5CCCC5)c34)C2)C[C@H](C)O1 [Example 183, [(2R,6S)-2,6-Dimethylmorpholin-4-yl][(7S)-4-{[6-(pyrrolidin-1-yl)-1H-indazol-5-yl]amino}-5,6,7,8-tetrahydro[1]benzothieno[2,3-d]pyrimidin-7-yl]methanone]
400 | C[C@@H]1COCCN1C(=O)[C@H]1CCc2c(sc3ncnc(Nc4cc5cn[nH]c5cc4N4CCCC4)c23)C1 [Example 184, [(3R)-3-Methylmorpholin-4-yl][(7S)-4-{[6-(pyrrolidin-1-yl)-1H-indazol-5-yl]amino}-5,6,7,8-tetrahydro[1]benzothieno[2,3-d]pyrimidin-7-yl]methanone]
600 | C[C@H]1COCCN1C(=O)[C@H]1CCc2c(sc3ncnc(Nc4cc5cn[nH]c5cc4N4CCCC4)c23)C1 [Example 185, [(3S)-3-Methylmorpholin-4-yl][(7S)-4-{[6-(pyrrolidin-1-yl)-1H-indazol-5-yl]amino}-5,6,7,8-tetrahydro[1]benzothieno[2,3-d]pyrimidin-7-yl]methanone]
44700 | CN(C)C(=O)[C@H]1CCc2c(sc3ncnc(Nc4cc5cn[nH]c5cc4S(C)(=O)=O)c23)C1 [Example 186, (7S)—N,N-Dimethyl-4-{[6-(methylsulfonyl)-1H-indazol-5-yl]amino}-5,6,7,8-tetrahydro[1]benzothieno[2,3-d]pyrimidine-7-carboxamide]
200 | C[C@@H]1COCCN1C(=O)[C@H]1CCc2c(sc3ncnc(Nc4cc5cn[nH]c5cc4N(C)C)c23)C1 [Example 187, [(7S)-4-{[6-(Dimethylamino)-1H-indazol-5-yl]amino}-5,6,7,8-tetrahydro[1]benzothieno[2,3-d]pyrimidin-7-yl][(3R)-3-methylmorpholin-4-yl]methanone]
300 | C[C@H]1COCCN1C(=O)[C@H]1CCc2c(sc3ncnc(Nc4cc5cn[nH]c5cc4N(C)C)c23)C1 [Example 188, [(7S)-4-{[6-(Dimethylamino)-1H-indazol-5-yl]amino}-5,6,7,8-tetrahydro[1]benzothieno[2,3-d]pyrimidin-7-yl][(3S)-3-methylmorpholin-4-yl]methanone]
100 | C[C@@H]1CN(C(=O)[C@H]2CCc3c(sc4ncnc(Nc5cc6cn[nH]c6cc5N(C)C)c34)C2)C[C@H](C)O1 [Example 189, [(7S)-4-{[6-(Dimethylamino)-1H-indazol-5-yl]amino}-5,6,7,8-tetrahydro[1]benzothieno[2,3-d]pyrimidin-7-yl][(2R,6S)-2,6-dimethylmorpholin-4-yl]methanone]
300 | CCOc1cc2[nH]ncc2cc1Nc1ncnc2sc3c(c12)CC[C@H](C(=O)N1CC[C@@H](N(C)C)C1)C3 [Example 190, [(3R)-3-(Dimethylamino)pyrrolidin-1-yl]{(7S)-4-[(6-ethoxy-1H-indazol-5-yl)amino]-5,6,7,8-tetrahydro[1]benzothieno[2,3-d]pyrimidin-7-yl}methanone]
1400 | CN(C)C(=O)[C@H]1CCc2c(sc3ncnc(Nc4cc5cn[nH]c5cc4OC(F)(F)F)c23)C1 [Example 191, (7S)—N,N-Dimethyl-4-{[6-(trifluoromethoxy)-1H-indazol-5-yl]amino}-5,6,7,8-tetrahydro[1]benzothieno[2,3-d]pyrimidine-7-carboxamide]
2200 | CCCSc1cc2[nH]ncc2cc1Nc1ncnc2sc3c(c12)CC[C@H](C(=O)N(C)C)C3 [Example 192, (7S)—N,N-Dimethyl-4-{[6-(propylsulfanyl)-1H-indazol-5-yl]amino}-5,6,7,8-tetrahydro[1]benzothieno[2,3-d]pyrimidine-7-carboxamide]
222000 | CN(C)C(=O)[C@H]1CCc2c(sc3ncnc(Nc4cc5cn[nH]c5cc4OCCN4CCCC4=O)c23)C1 [Example 193, (7S)—N,N-Dimethyl-4-({6-[2-(2-oxopyrrolidin-1-yl)ethoxy]-1H-indazol-5-yl}amino)-5,6,7,8-tetrahydro[1]benzothieno[2,3-d]pyrimidine-7-carboxamide]
44300 | CN(C)C(=O)[C@H]1CCc2c(sc3ncnc(Nc4cc5cn[nH]c5cc4OCCN4CCOC4=O)c23)C1 [Example 194, (7S)—N,N-Dimethyl-4-({6-[2-(2-oxo-1,3-oxazolidin-3-yl)ethoxy]-1H-indazol-5-yl}amino)-5,6,7,8-tetrahydro[1]benzothieno[2,3-d]pyrimidine-7-carboxamide]
900 | O=C([C@H]1CCc2c(sc3ncnc(Nc4cc5cn[nH]c5cc4N4CCCC4)c23)C1)N1CCC1 [Example 195, Azetidin-1-yl[(7S)-4-{[6-(pyrrolidin-1-yl)-1H-indazol-5-yl]amino}-5,6,7,8-tetrahydro[1]benzothieno[2,3-d]pyrimidin-7-yl]methanone]
100 | CN(C)c1cc2[nH]ncc2cc1Nc1ncnc2sc3c(c12)CC[C@H](C(=O)N1CCC1)C3 [Example 196, Azetidin-1-yl[(7S)-4-{[6-(dimethylamino)-1H-indazol-5-yl]amino}-5,6,7,8-tetrahydro[1]benzothieno[2,3-d]pyrimidin-7-yl]methanone]
100 | CCN(OC)C(=O)[C@H]1CCc2c(sc3ncnc(Nc4cc5cn[nH]c5cc4OC)c23)C1 [Example 197, (7S)—N-Ethyl-N-methoxy-4-[(6-methoxy-1H-indazol-5-yl)amino]-5,6,7,8-tetrahydro[1]benzothieno[2,3-d]pyrimidine-7-carboxamide]
200 | COc1cc2[nH]ncc2cc1Nc1ncnc2sc3c(c12)CC[C@H](C(=O)N(C)OC)C3 [Example 198, (7S)—N-Methoxy-4-[(6-methoxy-1H-indazol-5-yl)amino]-N-methyl-5,6,7,8-tetrahydro[1]benzothieno[2,3-d]pyrimidine-7-carboxamide]
200 | CN(C)C(=O)[C@H]1CCc2c(sc3ncnc(Nc4cc5cn[nH]c5cc4OC4CCCC4)c23)C1 [Example 199, (7S)-4-{[6-(Cyclopentyloxy)-1H-indazol-5-yl]amino}-N,N-dimethyl-5,6,7,8-tetrahydro[1]benzothieno[2,3-d]pyrimidine-7-carboxamide]
1600 | CN(C)C(=O)[C@H]1CCc2c(sc3ncnc(Nc4cc5cn[nH]c5cc4OC4CCOCC4)c23)C1 [Example 200, (7S)—N,N-Dimethyl-4-{[6-(tetrahydro-2H-pyran-4-yloxy)-1H-indazol-5-yl]amino}-5,6,7,8-tetrahydro[1]benzothieno[2,3-d]pyrimidine-7-carboxamide]
23600 | CN(C)C(=O)[C@H]1CCc2c(sc3ncnc(Nc4cc5cn[nH]c5cc4OCC4CCOCC4)c23)C1 [Example 201, (7S)—N,N-Dimethyl-4-{[6-(tetrahydro-2H-pyran-4-ylmethoxy)-1H-indazol-5-yl]amino}-5,6,7,8-tetrahydro[1]benzothieno[2,3-d]pyrimidine-7-carboxamide]
1000 | CN(C)C(=O)[C@H]1CCc2c(sc3ncnc(Nc4cc5cn[nH]c5cc4OC4CCCCC4)c23)C1 [Example 202, (7S)-4-{[6-(Cyclohexyloxy)-1H-indazol-5-yl]amino}-N,N-dimethyl-5,6,7,8-tetrahydro[1]benzothieno[2,3-d]pyrimidine-7-carboxamide]
17100 | CN(C)CCCOc1cc2[nH]ncc2cc1Nc1ncnc2sc3c(c12)CC[C@H](C(=O)N(C)C)C3 [Example 203, (7S)-4-({6-[3-(Dimethylamino)propoxy]-1H-indazol-5-yl}amino)-N,N-dimethyl-5,6,7,8-tetrahydro[1]benzothieno[2,3-d]pyrimidine-7-carboxamide]
900 | COc1cc2[nH]ncc2cc1Nc1ncnc2sc3c(c12)CC[C@H](C(=O)N(C)CC(C)(C)OC)C3 [Example 204, (7S)-4-[(6-Methoxy-1H-indazol-5-yl)amino]-N-(2-methoxy-2-methylpropyl)-N-methyl-5,6,7,8-tetrahydro[1]benzothieno[2,3-d]pyrimidine-7-carboxamide]
900 | COc1cc2[nH]ncc2cc1Nc1ncnc2sc3c(c12)CC[C@H](C(=O)N1CC=CC1)C3 [Example 206, 2,5-Dihydro-1H-pyrrol-1-yl{(7S)-4-[(6-methoxy-1H-indazol-5-yl)amino]-5,6,7,8-tetrahydro[1]benzothieno[2,3-d]pyrimidin-7-yl}methanone]
200 | COc1cc2[nH]ncc2cc1Nc1ncnc2sc3c(c12)CC[C@H](C(=O)N1CCSCC1)C3 [Example 207, {(7S)-4-[(6-methoxy-1H-indazol-5-yl)amino]-5,6,7,8-tetrahydro[1]benzothieno[2,3-d]pyrimidin-7-yl}(thiomorpholin-4-yl)methanone]
